Results taken from patent publication US4208514A, “4(3H)-Oxobenzo-2,1,3-thiadiazine-2,2-dioxides” (The Dow Chemical Company, priority 1976, dated 1980).

Experiments:
Assay type in all cases: in vivo
[1] = system: Jimson Weed; assay: Selective post-emergent greenhouse test, Jimson Weed; details: post-emergence, 336 h, 2 weeks; for pest or weed control at 358.672 g/ha: 0.32 lbs/acre; for pest or weed control at 706.135 g/ha: 0.63 lbs/acre
Source text: (§1) So as to illustrate clearly the phytotoxic properties of the various active ingredients of the present invention, a group of controlled greenhouse experiments is described below.
(§2) Various species of plants, both broadleaf weeds and valuable crops, were planted in beds of good agricultural soil in a greenhouse. After the plants had emerged and grown to a height of about 2-6 inches, a portion of the plants were sprayed with an aqueous mixture, made by mixing a selected active ingredient and emulsifier or dispersant with water to provide solution containing 250 or 125 ppm active ingredient, employing sufficient amounts of the treating composition to provide low post emergent application rates of about 0.63 or 0.32 pounds per acre. Other portions of the plants were left untreated to serve as controls. In each test the active ingredient was a 3-methylethyl-1H-2,1,3-benzothiadiazin-4(3H)-one-2,2-dioxide having a substituent in the one position according to the invention.
(§3) After a period of 2 weeks the selective effect of the test ingredient on the plants was evaluated by a comparison with the control group of plants.

[2] = system: Soybean; assay: Selective post-emergent greenhouse test, Soybean (crop injury); details: Glycine max, post-emergence, 336 h, 2 weeks, read-out: % Control Soybean; for plant injury at 358.672 g/ha: 0.32 lbs/acre; for plant injury at 706.135 g/ha: 0.63 lbs/acre
Source text: as §1, §2, §3

[3] = system: Cotton; assay: Selective post-emergent greenhouse test, Cotton (crop injury); details: for plant injury at 358.672 g/ha / plant injury at 706.135 g/ha: Gossypium hirsutum, post-emergence, 336 h, 2 weeks, crop, read-out: % Control Cotton; for plant injury at 358.672 g/ha: 0.32 lbs/acre; for plant injury at 706.135 g/ha: 0.63 lbs/acre
Source text: as §1, §2, §3

[4] = system: Velvet Leaf; assay: Selective post-emergent greenhouse test, Velvet Leaf; details: for pest or weed control at 358.672 g/ha / pest or weed control at 706.135 g/ha: post-emergence, 336 h, 2 weeks; for pest or weed control at 358.672 g/ha: 0.32 lbs/acre; for pest or weed control at 706.135 g/ha: 0.63 lbs/acre
Source text: as §1, §2, §3

Compound	pest or weed control at 358.672 g/ha [1]	pest or weed control at 706.135 g/ha [1]	plant injury at 358.672 g/ha [2]	plant injury at 706.135 g/ha [2]	plant injury at 358.672 g/ha ([3]; post-emergent)	plant injury at 706.135 g/ha ([3]; post-emergent)	pest or weed control at 358.672 g/ha [4]	pest or weed control at 706.135 g/ha [4]	damage to cotton at dosage rates at which velvet leaf is controlled ([3]; comparison compound, in general)	control of cotton ([3]; comparison test, about 0.32 pounds per acre, post-emergent)	control of velvet leaf ([4]; comparison test, about 0.32 pounds per acre)
CC(C)N1C(=O)c2ccccc2N(C(=O)CC(C)(C)C)S1(=O)=O [COCH2 C(CH3)3, 1H-2,1,3-Benzothiadiazin-4(3H)-one: 1-(3,3-dimethyl-1-oxobutyl)-3-(1-methylethyl)-; 2,2-dioxide]	90%	100%	0%	0%	0%	0%	100%	100%			
CCN(CC)C(=O)N1c2ccccc2C(=O)N(C(C)C)S1(=O)=O [CON(C2 H5)2]	100%	100%	0%	0%	10%	90%	0%	20%			
CC(C)N1C(=O)c2ccccc2N(C(=O)c2ccccc2)S1(=O)=O	80%	80%	0%	0%	0%	0%	0%	0%			
CC(C)N1C(=O)c2ccccc2N(C(=O)C2CCCCC2)S1(=O)=O	100%	100%	0%	0%	0%	100%	0%	100%			
CC(C)N1C(=O)c2ccccc2N(C(=O)OCCCl)S1(=O)=O [CO2 CH2 CH2 Cl]	80%	100%	0%	0%	10%	10%	95%	100%			
CC(C)N1C(=O)c2ccccc2N(C(=O)N(C)C)S1(=O)=O [CON(CH3)2, 1H-2,1,3-Benzothiadiazine-1-carboxamide: N,N-Dimethyl-3,4-dihydro-3-(1-methylethyl)-4-oxo-, 2,2-dioxide]	100%	100%	0%	0%		40%	40%	95%			
CCC(C)OC(=O)N1c2ccccc2C(=O)N(C(C)C)S1(=O)=O (stereo not shown)	100%	100%	0%	0%	30%	30%	100%	100%			
CC(C)N1C(=O)c2ccccc2N(C(=O)C(C)(C)C)S1(=O)=O [COC(CH3)3, 3-(1-Methylethyl)-1-(2,2-dimethyl-1-oxopropyl)-1H-2,1,3- -benzothiadiazin-4(3H)-one-2,2-dioxide]	70%	100%	0%	0%	0%	40%	80%	100%			
CC(C)COC(=O)N1c2ccccc2C(=O)N(C(C)C)S1(=O)=O [CO2 CH2 CH(CH3)2, 1H-2,1,3-Benzothiadiazine-1-carboxylic Acid: 3,4-Dihydro-3-(1-methylethyl)-4-oxo-, 2-Methylpropyl Ester, 2,2-Dioxide]	100%	100%	10%	10%	0%	0%	100%	100%			
CC(C)N1C(=O)c2ccccc2NS1(=O)=O [3-methylethyl-1H-2,1,3-benzothiadiazin-4(3H)-one-2,2-dioixde, reference compound]									cotton suffers substantial damage	90%	control of velvet leaf was obtained
CCOC(=O)N1c2ccccc2C(=O)N(C(C)C)S1(=O)=O [CO2 CH2 CH3]	100%	100%	0%	0%	10%	30%	70%	100%			
CC(C)N1C(=O)c2ccccc2N(S(=O)(=O)N(C)C)S1(=O)=O [SO2 N(CH3)2, 1H-2,1,3-Benzothiadiazin-4-(3H)-one; 1-Dimethylsulfamoyl-3-(1-methylethyl)-2,2-dioxide]		100%	0%	0%	5%	70%	70%	50%			
COC(=O)CCC(=O)N1c2ccccc2C(=O)N(C(C)C)S1(=O)=O [drawing 13]	100%	100%	0%	0%	0%	60%	70%	100%			
CCCCCCCCCCCC(=O)N1c2ccccc2C(=O)N(C(C)C)S1(=O)=O [CO(CH2)10 CH3, 3-(1-Methylethyl)-1-(1-oxododecanyl)-1H-2,1,3-benzothiadiazin-4 (3H)-one-2,2-dioxide]	100%	100%	0%	0%	0%	20%	60%	70%			
CCC(=O)N1c2ccccc2C(=O)N(C(C)C)S1(=O)=O [COC2 H5, 1H-2,1,3-Benzothiadiazin-4(3H)-one: 3-(1-methylethyl)-1-(1-oxopropyl)-; 2,2-dioxide]			0%	0%	0%	100%	100%	100%			
CC(C)N1C(=O)c2ccccc2N(S(=O)(=O)c2ccccc2)S1(=O)=O	100%	100%	0%	0%	0%	0%	0%	30%			
CC(Br)C(=O)N1c2ccccc2C(=O)N(C(C)C)S1(=O)=O (stereo not shown) [COCHBrCH3, 1H-2,1,3-Benzothiadiazin-4(3H)-one: 1-(2-Bromo-1-oxopropyl)-3-(1-methylethyl)-; 2,2-dioxide]	100%	100%	0%	0%	0%	4%	100%	100%			
